target: T1, P2X7 (Homo sapiens, UniProt Q99572); assay: High Throughput P2X7 Calcium Mobilization Assay (Example 4A), antagonist activity; type: cell-based; settings: SH-SY5Y cells, 50% decrease in fluorescence response of cells exposed to 80 μM BzATP
T1 construct: host or cells: SH-SY5Y
T1 sequence (Q99572 1-595): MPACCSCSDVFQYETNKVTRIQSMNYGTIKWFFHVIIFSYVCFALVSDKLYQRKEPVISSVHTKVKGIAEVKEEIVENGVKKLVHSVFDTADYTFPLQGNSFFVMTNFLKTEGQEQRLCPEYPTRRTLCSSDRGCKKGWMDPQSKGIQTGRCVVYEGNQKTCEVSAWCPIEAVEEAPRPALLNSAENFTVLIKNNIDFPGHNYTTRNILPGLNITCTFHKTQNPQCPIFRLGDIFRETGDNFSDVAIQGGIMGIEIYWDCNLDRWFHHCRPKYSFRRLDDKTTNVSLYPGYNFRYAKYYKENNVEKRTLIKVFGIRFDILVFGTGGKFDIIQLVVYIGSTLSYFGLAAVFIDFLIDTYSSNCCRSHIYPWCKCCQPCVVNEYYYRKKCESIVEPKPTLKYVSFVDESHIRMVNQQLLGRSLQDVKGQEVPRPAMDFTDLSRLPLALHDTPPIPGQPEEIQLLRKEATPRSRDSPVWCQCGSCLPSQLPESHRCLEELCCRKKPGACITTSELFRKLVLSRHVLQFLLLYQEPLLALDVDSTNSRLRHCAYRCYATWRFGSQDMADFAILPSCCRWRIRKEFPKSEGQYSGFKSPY
Experimental: A. High Throughput P2X7 Calcium Mobilization Assay
SH-SY5Y cells, ATCC Number CRL-2266, (American Type Culture Collection, Manassas, Va.) are cultured under DMEM/High medium supplemented with 10% FBS, and 10 mM HEPES (Invitrogen Corp., Carlsbad, Calif.) in 5% CO2 and at 37° C. One day prior to the experiment, cells are plated at a density of 100,000 cells/well in a 96 well black/clear TC plate (Corning® Costar®, Sigma-Aldrich Co., St. Louis, Mo.). At the beginning of the experiment, the culture medium is removed and cells are incubated with 50 μL of 2.3 μM Fluo-4 AM dye (Invitrogen Corp.) in the assay solution (5 mM KCl, 9.6 mM NaH2PO4.H2O, 25 mM HEPES, 280 mM Sucrose, 5 mM Glucose, and 0.5 mM CaCl2; pH is adjusted to 7.4 with NaOH) for an hour at 37° C. After one hour dye incubation, wells are rinsed once with 50 μL assay solution, and are then incubated for an hour at room temperature with 100 μL assay solution containing the test compound. The final concentration of test compound generally ranges from 1 to 2500 nM; for positive control cells, no test compound is added. After the one hour incubation, plates are transferred to a FLIPR^TETRA instrument (Molecular Devices, Sunnyvale, Calif.) for calcium mobilization analysis.
For determination of antagonist activity, 50 μL of P2X7 agonist (2′(3′)-O-(4-benzoyl-benzoyl)adenosine 5′-triphosephate (BzATP; Sigma-Aldrich) in the assay solution is transferred using the FLIPR into the plate, such that the final agonist concentration is 80 μM (about EC50). In negative control cells, 50 μL of assay solution without agonist is added at this stage. The peak fluorescence signal over a 2 minute period is then measured.
First, the average maximum relative fluorescent unit (RFU) response from the negative control wells (no agonist) is subtracted from the maximum response detected for each of the other experimental wells. Second, average maximum RFU response is calculated for the positive control wells (agonist wells). Then, percent inhibition for each compound tested is calculated using the equation: Percent Inhibition=100−100×(Peak Signal in Test Cells/Peak Signal in Control Cells) The % inhibition data is plotted as a function of test compound concentration and test compound IC50 is determined using, for example, KALEIDAGRAPH software (Synergy Software, Reading, Pa.) best fit of the data to the equation: y=m1*(1/(1+(m2/m0)^m3)) where y is the percent inhibition, m0 is […], m1 is the maximum RFU, m2 corresponds to the test compound IC50 (the concentration required to provide a 50% decrease, relative to the response observed in the presence of agonist and without antagonist) and m3 is the Hill coefficient.

IC50, ≤ 2 µM:
O=C(NCCF)c1cc2c(C(=O)NCC34CC5CC(CC(C5)C3)C4)cccn2n1 [Compound 62, 4-N-(adamantan-1-ylmethyl)-2-N-(2-fluoroethyl)pyrazolo [1,5-a]pyridine-2,4-dicarboxamide]
CN(CC(F)F)C(=O)Cc1cc2c(C(=O)NCC34CC5CC(CC(C5)C3)C4)cccn2n1 [Compound 78, N-(adamantan-1-ylmethyl)-2-{2-[(2,2-difluoroethyl)(methyl)amino]-2-oxoethyl}pyrazolo[1,5-a]pyridine-4-carboxamide]
O=C(NCC12CC3CC(CC(C3)C1)C2)c1cccn2nc(CC3=NCCN3)cc12 [Compound 89, N-(adamantan-1-ylmethyl)-2-(4,5-dihydro-1H-imidazol-2-ylmethyl)pyrazolo[1,5-a]pyridine-4-carboxamide]
CN(Cc1ccncc1)C(=O)c1cc2c(C(=O)NCC34CC5CC(CC(C5)C3)C4)cccn2n1 [Compound 33, 4-N-(adamantan-1-ylmethyl)-2-N-methyl-2-N-(pyridin-4-ylmethyl)pyrazolo[1,5-a]pyridine-2,4-dicarboxamide]
CC(C)CC(CNC(=O)c1cccn2nc(C(=O)N3CC[C@@H](N)C3)cc12)c1ccc(C(F)(F)F)cc1 (stereo partly drawn) [Compound 80, 2-{[(3R)-3-aminopyrrolidin-1-yl]carbonyl}-N-{4-methyl-2-[4-(trifluoromethyl)phenyl]pentyl}pyrazolo[1,5-a]pyridine-4-carboxamide]
CN(Cc1cnccn1)Cc1cc2c(C(=O)NCC34CC5CC(CC(C5)C3)C4)cccn2n1 [Compound 55, N-(adamantan-1-ylmethyl)-2-{[methyl(pyrazin-2-ylmethyl)amino]methyl} pyrazolo[1,5-a]pyridine-4-carboxamide]
CN(Cc1ccc(F)cc1)Cc1cc2c(C(=O)NCC34CC5CC(CC(C5)C3)C4)cccn2n1 [Compound 70, N-(adamantan-1-ylmethyl)-2-{[(4-fluorobenzyl)(methyl)amino]methyl}pyrazolo [1,5-a]pyridine-4-carboxamide]
CC(C)CC(CNC(=O)c1cccn2nc(C(=O)N(C)CCF)cc12)c1ccc(Cl)cc1 (centres unmarked) [Compound 92, Pyrazolo[1,5-a]pyridine-2,4-dicarboxylic acid 4-{[2-(4-chloro-phenyl)-4-methyl-pentyl]-amide} 2-[(2-fluoro-ethyl)-methyl-amide]]
N[C@@H]1CCCN(C(=O)c2cc3c(C(=O)NCC45CC6CC(CC(C6)C4)C5)cccn3n2)C1 [Compound 17, N-(adamantan-1-ylmethyl)-2-{[(3R)-3-aminopiperidin-1-yl]carbonyl}pyrazolo [1,5-a]pyridine-4-carboxamide]
O=C(NC1CCS(=O)(=O)C1)c1cc2c(C(=O)NCC34CC5CC(CC(C5)C3)C4)cccn2n1 (centres unmarked) [Compound 82, 4-N-(adamantan-1-ylmethyl)-2-N-(1,1-dioxidotetrahydrothio-phen-3-yl)pyrazolo[1,5-a]pyridine-2,4-dicarboxamide]
NC(=O)c1ccc(C(=O)c2ccc3c(C(=O)NCC45CC6CC(CC(C6)C4)C5)cccn23)cc1 [Compound 110, N-(adamantan-1-ylmethyl)-3-(4-carbamoylbenzoyl) indolizine-8-carboxamide]
N[C@@H]1CCN(C(=O)c2cc3c(NC(=O)CC45CC6CC(CC(C6)C4)C5)cccn3n2)C1 [Compound 99, 2-adamantan-1-yl-N-(2-{[(3R)-3-aminopyrrolidin-1-yl]carbonyl}pyrazolo [1,5-a]pyridin-4-yl)acetamide]
CC(C)CC(CNC(=O)c1cccn2nc(C(=O)N3CC[C@@H](N)C3)cc12)c1ccc(Cl)cc1 (stereo partly drawn) [Compound 71, 2-{[(3R)-3-aminopyrrolidin-1-yl]carbonyl}-N-[2-(4-chlorophenyl)-4-methylpentyl]pyrazolo [1,5-a]pyridine-4-carboxamide]
CN(CC(F)F)C(=O)c1cc2c(C(=O)NCC34CC5CC(CC(C5)C3)C4)cccn2n1 [Compound 75, 4-N-(adamantan-1-ylmethyl)-2-N-(2,2-difluoroethyl)-2-N-methylpyrazolo[1,5-a]pyridine-2,4-dicarboxamide]
O=C(CC12CC3CC(CC(C3)C1)C2)Nc1cccn2nc(C(=O)N3CCOCC3)cc12 [Compound 96, 2-adamantan-1-yl-N-[2-(morpholin-4-ylcarbonyl)pyrazolo [1,5-a]pyridin-4-yl]acetamide]
O=C(NCC12CC3CC(CC(C3)C1)C2)c1cccn2nc(C(Cc3ccccc3)C(=O)O)cc12 (centres unmarked) [Compound 103, 2-{4-[(adamantan-1-ylmethyl)carbamoyl]pyrazolo[1,5-a]pyridin-2-yl}-3-phenylpropanoic acid]
CN(Cc1cccc(F)c1)C(=O)c1cc2c(C(=O)NCC34CC5CC(CC(C5)C3)C4)cccn2n1 [Compound 66, 4-N-(adamantan-1-ylmethyl)-2-N-(3-fluorobenzyl)-2-N-methylpyrazolo[1,5-a]pyridine-2,4-dicarboxamide]
CC(C)CC(CNC(=O)c1cccn2nc(C(=O)N3CCC[C@@H](N)C3)cc12)c1ccccc1 (stereo partly drawn) [Compound 43, 2-{[(3R)-3-aminopiperidin-1-yl]carbonyl}-N-(4-methyl-2-phenylpentyl)pyrazolo [1,5-a]pyridine-4-carboxamide]
O=C(NCC1(c2ccc(Cl)cc2)CCCCC1)c1cccn2nc(C(=O)N3CCOCC3)cc12 [Compound 84, N-{[1-(4-chlorophenyl)cyclohex-yl]methyl}-2-(morpholin-4-ylcarbonyl)pyrazolo [1,5-a]pyridine-4-carboxamide]
O=C(O)CC(Cc1ccccc1)c1cc2c(C(=O)NCC34CC5CC(CC(C5)C3)C4)cccn2n1 (centres unmarked) [Compound 107, 3-{4-[(adamantan-1-ylmethyl)carbamoyl]pyrazolo[1,5-a]pyridin-2-yl}-4-phenylbutanoic acid]
O=C1CC2(CCN(C(=O)c3cc4c(C(=O)NCC56CC7CC(CC(C7)C5)C6)cccn4n3)CC2)CN1 [Compound 40, N-(adamantan-1-ylmethyl)-2-[(3-oxo-2,8-diazaspiro[4.5]dec-8-yl)carbonyl]pyrazolo [1,5-a]pyridine-4-carboxamide]
CN(CCF)C(=O)c1cc2c(C(=O)NCC3(c4ccc(C(F)(F)F)cc4)CCCCC3)cccn2n1 [Compound 93, Pyrazolo[1,5-a]pyridine-2,4-dicarboxylic acid 2-[(2-fluoro-ethyl)-methyl-amide]-4-{[1-(4-trifluoromethyl-phenyl)-cyclohexylmethyl]-amide}]
CN(CC(F)(F)F)C(=O)Cc1cc2c(C(=O)NCC34CC5CC(CC(C5)C3)C4)cccn2n1 [Compound 79, N-(adamantan-1-ylmethyl)-2-{2-[methyl(2,2,2-trifluoroethyl)amino]-2-oxoethyl}pyrazolo[1,5-a]pyridine-4-carboxamide]
